Assay results reported in US20230375576A1, “METHODS FOR THE TREATMENT OF FAMILIAL HETEROZYGOUS AND HOMOZYGOUS HYPERCHOLESTEROLEMIA WITH CYCLODEXTRINS” (Beren Therapeutics P.B.C., priority 2021, published 2023).
Entries after “also recorded” stand apart in the source; their conditions may differ.

Tests used:
ABCA1 = assay: mRNA expression of ABCA1 in whole blood from HoFH patients; assay type: cell-based, human; settings: 1.2 mM HPBCD, 6 hours, normalized to saline control, FIG. 1B
Method: This example aims to investigate the effects of HPBCD (2-hydroxypropyl-beta-cyclodextrin) on cholesterol efflux capacity in HoFH patients. HPBCD was added to whole blood obtained from HoFH patients at concentration of 1.2 mM. Untreated samples were used as control. The mixtures were incubated for 6 hours. Total mRNA was isolated and mRNA expression levels were measured. Data is shown as the level of gene expression normalized to saline control.

Ldlr−/− mice = assay: Effect on liver weight in Ldlr−/− mouse model; assay type: in vivo; settings: Ldlr−/− mice on Western diet; 2 g/kg subcutaneously after five weeks; livers weighed up to 4 weeks post-HPBCD; versus untreated mice; FIG. 3
Source text: To evaluate the effect of HPBCD (2-hydroxypropyl-beta-cyclodextrin) on liver weight, experiments using Ldlr−/− mice were designed as described in FIGS. 2A and 2B. The mice were fed normal chow diet (NC) or high-fat (42%), high-cholesterol (1.2) diet Western diet (WD) as described in Table 1 and Table 2. After five weeks, the mice were subcutaneously injected with 2 g/kg […]. The livers were excised and weighed after five weeks (Group 1, 2, 6), six weeks (Group 3), seven weeks (Group 4), and nine weeks (Group 5), respectively. [table] [table]

[1] = Cholesterol crystal dissolution capacity in plasma of HoFH patients (D6-labeled cholesterol in filtrate, GC-MS); settings: human plasma from HoFH patients; D6-labeled cholesterol crystals added; compared to control group; FIG. 1A
Method: D6-labeled cholesterol crystals were added to human plasma collected from homozygous familial hypercholesterolemia (HoFH) patients treated with HPBCD (2-hydroxypropyl-beta-cyclodextrin). The reaction mixtures were filtered to remove crystals and the filtrate was assayed for the presence of D6-labeled cholesterol using gas chromatography-mass spectroscopy (GC-MS). Cholesterol measured in the filtrate indicated the ability of HPBCD (2-hydroxypropyl-beta-cyclodextrin) to dissolve cholesterol crystals.

**Q.** Which “mRNA expression level of ABCA1” value (ABCA1) does the source give for CC(O)COC[C@H]1O[C@@H]2O[C@H]3[C@H](O)[C@@H](O)[C@@H](O[C@H]4[C@H](O)[C@@H](O)[C@@H](O[C@H]5[C@H](O)[C@@H](O)[C@@H](O[C@H]6[C@H](O)[C@@H](O)[C@@H](O[C@H]7[C@H](O)[C@@H](O)[C@@H](O[C@H]8[C@H](O)[C@@H](O)[C@@H](O[C@H]1[C@H](O)[C@H]2O)O[C@@H]8COCC(C)O)O[C@@H]7COCC(C)O)O[C@@H]6COCC(C)O)O[C@@H]5COCC(C)O)O[C@@H]4COCC(C)O)O[C@@H]3COCC(C)O (stereo partly drawn) [HPBCD, 2-hydroxypropyl-beta-cyclodextrin] here?
**A.** significant induction

**Q.** What about the liver weight (Ldlr−/− mice) of the same compound?
**A.** inhibits increase of liver weight; also recorded: did not show any further increase in liver weight

**Q.** And the cholesterol crystal dissolution [1]?
**A.** significantly increased
